Laboratory results from patent US5246959A, “Poly(aminoalkyl)aminocarbonyl aminoacyl aminodiol amino acid derivatives as anti-hypertensive agents” (G. D. Searle & Co., priority 1991, dated 1993).
Where a SMILES comes first, the peptide text is derived from it. [ ]: non-standard residue; d: D form. The star is where a group is joined. Sta = CC(C)C[C@H](N)[C@@H](O)CC(=O)O; Isovaleryl = CC(C)CC(=O)*

How the values were obtained:
[1] = target: T1, Human Renin (Homo sapiens, UniProt P00797); assay: human renin inhibition test in vitro (angiotensin I by radioimmunoassay); format: biochemical; settings: pH 7.4, 37° C., two hours, human plasma
T1 construct: purchased National Institute for Biological Standards, London
T1 sequence (P00797 67-406): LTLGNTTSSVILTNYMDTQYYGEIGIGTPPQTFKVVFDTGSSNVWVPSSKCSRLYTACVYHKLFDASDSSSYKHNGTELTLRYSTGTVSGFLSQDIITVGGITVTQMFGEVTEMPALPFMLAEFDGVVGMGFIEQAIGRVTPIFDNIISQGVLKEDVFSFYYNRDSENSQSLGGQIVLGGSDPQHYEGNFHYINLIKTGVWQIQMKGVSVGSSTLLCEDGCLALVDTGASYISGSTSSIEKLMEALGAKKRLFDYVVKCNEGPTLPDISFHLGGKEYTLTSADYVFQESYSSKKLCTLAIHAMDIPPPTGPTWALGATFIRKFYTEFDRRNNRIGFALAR
Procedure: Compounds of Formula I were evaluated as inhibitors of human renin in an in vitro assay, as follows: This human renin inhibition test has been previously described in detail [Papaioannou et al., Clinical and Experimental Hypertension, A7(9), 1243-1257 (1985)]. Human renin was obtained from the National Institute for Biological Standards, London. An incubation mixture was prepared containing in a total volume of 0.25 mL 100 mM Tris-acetate buffer at pH 7.4, 25×10^-6 Goldblatt units of renin, 0.05 mL of plasma from human volunteers taking oral contraceptives, 6.0 mM sodium EDTA, 2.4 mM phenylmethyl sulfonyl fluoride, 1.5 mM 8-hydroxyquinoline, 0.4 mg/mL BSA, and 0.024 mg/mL neomycin sulfate. This mixture was incubated for two hours at 37° C. in the presence or absence of renin inhibitors. The produced angiotensin I was determined by radioimmunoassay (New England Nuclear kit). Test compounds to be assayed were solubilized in DMSO and diluted with 100 mM Trisacetate buffer at pH 7.4 containing 0.5% bovine serum albumin (BSA) to the appropriate concentration. The final concentration of organic solvent in the reaction mixture was less than 1%. Control incubations at 37° C. were used to correct for effects of organic solvent on renin activity.

[2] = system: hog renin; settings: after injection of hog renin into nephrectomized rats; cited from earlier work
[3] = system: cathepsin D; settings: cited from earlier work
[4] = system: pepsin; settings: cited from earlier work
[5] = system: renin; settings: cited from earlier work

With CC(C)C[C@H](NC(=O)[C@H](Cc1ccccc1)OC(=O)N(C)CCN(C)CCN(C)C)C(=O)N[C@@H](CC1CCCCC1)[C@@H](O)[C@@H](O)CC(C)C [Example 10] the IC50 [1] was 2.4 nM.

With CC(C)C[C@H](O)[C@H](O)[C@H](CC1CCCCC1)NC(=O)[C@H](Cc1cnc[nH]1)NC(=O)[C@H](Cc1ccccc1)OC(=O)N(C)CCN(C)CCN(C)C [Example 11, O-{N-[2-{N-[2-(N,N-dimethylamino)ethyl]-N-methylamino}-ethyl]-N-methylaminocarbonyl}-3-L-phenyllactyl-L-histidineamide of (2S,3R,4S)-2-amino-1-cyclohexyl-3,4-dihydroxy-6-methylheptane] the IC50 [1] was 1 nM.

In the case of CC(C)C[C@H](O)[C@H](O)[C@H](CC1CCCCC1)NC(=O)[C@H](C)CNC(=O)[C@H](Cc1ccccc1)OC(=O)N(C)CCN(C)CCN(C)C [Example 12], the IC50 [1] is reported as 110 nM.

In the case of CC(C)CC(=O)N[C@H](C(=O)N[C@H](C(=O)N[C@@H](CC(C)C)[C@@H](O)CC(=O)N[C@@H](C)C(=O)N[C@@H](CC(C)C)[C@@H](O)CC(=O)O)C(C)C)C(C)C [pepstatin] (Isovaleryl-VV[Sta]A[Sta]-OH), the “reduce blood pressure in vivo” value [2] is given as “found to reduce blood pressure in vivo”, the “inhibitor of cathepsin D” value [3] is given as “inhibitor” and the inhibitor of pepsin [4] is given as “inhibitor”. The inhibitor of renin [5] was “inhibitor”.
